Data published in patent US12606541B2, “PPARg modulators and methods of use” (Eisai R&D Management Co., Ltd., priority 2020, dated 2026).

Target: T1, His6-TEV-PPARγ-(234-505) (Homo sapiens, UniProt P37231)
T1 construct: The His6-TEV-PPARγ-(234-505) protein for assay was expressed and purified; TEV cleavage site (N); made in house
T1 sequence (P37231 234-505): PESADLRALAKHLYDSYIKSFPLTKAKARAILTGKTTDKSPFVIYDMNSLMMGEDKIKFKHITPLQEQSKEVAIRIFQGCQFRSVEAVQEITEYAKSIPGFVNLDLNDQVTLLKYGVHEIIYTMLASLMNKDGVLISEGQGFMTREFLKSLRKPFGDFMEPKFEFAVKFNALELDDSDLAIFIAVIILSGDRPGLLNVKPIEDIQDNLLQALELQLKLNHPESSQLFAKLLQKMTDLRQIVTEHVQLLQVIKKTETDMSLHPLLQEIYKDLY
Assay: TR-FRET Assay to Measure Co-R Peptide Recruitment to PPARγ
Format: biochemical
Details: Co-R peptide recruitment to PPARγ; read-out: TR-FRET AC50
In short: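 His-tagged PPARγ (or controls) was preincubated with compound for 20 minutes at room temperature, then 5 nM anti-His terbium antibody and 200 nM FITC-labeled SMRT-ID2 corepressor peptide (final) were added for a further hour. TR-FRET signal was normalized to percent response using 500 nM T0070907 and DMSO controls.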

| Structure (SMILES) | AC50 [µM] |
| --- | --- |
| O=C(NCc1ccc(Cl)c(Cl)c1)C1CCN(C(=O)c2cc(-c3cccnc3)[nH]n2)CC1 [N-[(3,4-dichlorophenyl)methyl]-1-[5-(pyridin-3-yl)-1H-pyrazole-3-carbonyl]piperidine-4-carboxamide] | > 1 |
| COc1c(Cl)cccc1CNC(=O)C1CCN(C(=O)c2cc(-c3ccncc3)[nH]n2)CC1 [N-[(3-chloro-2-methoxyphenyl)methyl]-1-[5-(pyridin-4-yl)-1H-pyrazole-3-carbonyl]piperidine-4-carboxamide] | > 1 |
| COc1cc(-c2cc(C(=O)N3CCC(C(=O)NCc4cccc(Cl)c4)CC3)n[nH]2)c(C)cn1 [N-[(3-chlorophenyl)methyl]-1-[5-(2-methoxy-5-methylpyridin-4-yl)-1H-pyrazole-3-carbonyl]piperidine-4-carboxamide] | > 1 |
| COc1cc(-c2cc(C(=O)N3CC4CCC(C3)C4C(=O)NCc3cccc(Cl)c3)n[nH]2)c(F)cn1 (stereo not drawn) [N-[(3-chlorophenyl)methyl]-3-[5-(5-fluoro-2-methoxypyridin-4-yl)-1H-pyrazole-3-carbonyl]-3-azabicyclo[3.2.1]octane-8-carboxamide] | > 1 |
| Cc1cccc(CNC(=O)C2CCCN(C(=O)c3cc(-c4ccncc4)[nH]n3)C2)c1 (stereo not drawn) [N-[(3-methylphenyl)methyl]-1-[5-(pyridin-4-yl)-1H-pyrazole-3-carbonyl]piperidine-3-carboxamide] | > 1 |
| O=C(N[C@@H]1CCN(Cc2ccccc2)C1)C1CCN(C(=O)c2cc(-c3ccncc3)[nH]n2)CC1 [N-[(3R)-1-benzylpyrrolidin-3-yl]-1-[5-(pyridin-4-yl)-1H-pyrazole-3-carbonyl]piperidine-4-carboxamide] | > 1 |
| O=C(N[C@H]1CCN(Cc2ccccc2)C1)C1CCN(C(=O)c2cc(-c3cccnc3)[nH]n2)CC1 [N-[(3S)-1-benzylpyrrolidin-3-yl]-1-[5-(pyridin-3-yl)-1H-pyrazole-3-carbonyl]piperidine-4-carboxamide] | > 1 |
| Cc1nc(CNC(=O)C2CCN(C(=O)c3cc(-c4ccncc4)[nH]n3)CC2)sc1C [N-[(4,5-dimethyl-1,3-thiazol-2-yl)methyl]-1-[5-(pyridin-4-yl)-1H-pyrazole-3-carbonyl]piperidine-4-carboxamide] | > 1 |
| O=C(NCc1ccc(Cl)cc1)C1CCN(C(=O)c2cc(-c3cccnc3)[nH]n2)CC1 [N-[(4-chlorophenyl)methyl]-1-[5-(pyridin-3-yl)-1H-pyrazole-3-carbonyl]piperidine-4-carboxamide] | > 1 |
| CCc1csc(CNC(=O)C2CCN(C(=O)c3cc(-c4ccncc4)[nH]n3)CC2)n1 [N-[(4-ethyl-1,3-thiazol-2-yl)methyl]-1-[5-(pyridin-4-yl)-1H-pyrazole-3-carbonyl]piperidine-4-carboxamide] | > 1 |
| COc1ccc(CNC(=O)C2CCN(C(=O)c3cc(-c4ccncc4)[nH]n3)CC2)cc1 [N-[(4-methoxyphenyl)methyl]-1-[5-(pyridin-4-yl)-1H-pyrazole-3-carbonyl]piperidine-4-carboxamide] | > 1 |
| Cc1csc(CNC(=O)C2CCN(C(=O)c3cc(-c4ccncc4)[nH]n3)CC2)n1 [N-[(4-methyl-1,3-thiazol-2-yl)methyl]-1-[5-(pyridin-4-yl)-1H-pyrazole-3-carbonyl]piperidine-4-carboxamide] | > 1 |
| CC(C)(C)c1csc(CNC(=O)C2CCN(C(=O)c3cc(-c4ccncc4)[nH]n3)CC2)n1 [N-[(4-tert-butyl-1,3-thiazol-2-yl)methyl]-1-[5-(pyridin-4-yl)-1H-pyrazole-3-carbonyl]piperidine-4-carboxamide] | > 1 |
| CC(C)(C)c1ccc(CNC(=O)C2CCN(C(=O)c3cc(-c4ccncc4)[nH]n3)CC2)cc1 [N-[(4-tert-butylphenyl)methyl]-1-[5-(pyridin-4-yl)-1H-pyrazole-3-carbonyl]piperidine-4-carboxamide] | > 1 |
| CN(Cc1ccc(C(C)(C)C)cc1)C(=O)C1CCN(C(=O)c2cc(-c3ccncc3)[nH]n2)CC1 [N-[(4-tert-butylphenyl)methyl]-N-methyl-1-[5-(pyridin-4-yl)-1H-pyrazole-3-carbonyl]piperidine-4-carboxamide] | > 1 |
| CC(C)(C)c1ccc(CNC(=O)C2CCN(C(=O)c3cc(-c4ccncc4)[nH]n3)CC2)cn1 [N-[(6-tert-butylpyridine-3-yl)methyl]1-[5-(pyridin-4-yl)-1H-pyrazole-3-carbonyl]piperidine-4-carboxamide] | > 1 |
| O=C(NC1CCCCC1)C1CCN(C(=O)c2cc(-c3ccncc3)[nH]n2)CC1 [N-cyclohexyl-1-[5-(pyridin-4-yl)-1H-pyrazole-3-carbonyl]piperidine-4-carboxamide] | > 1 |
| O=C(NC1CC1)C1CCCN(C(=O)c2cc(-c3ccncc3)[nH]n2)C1 (stereo not drawn) [N-cyclopropyl-1-[5-(pyridin-4-yl)-1H-pyrazole-3-carbonyl]piperidine-3-carboxamide] | > 1 |
| O=C(NC1CC1)C1CCN(C(=O)c2cc(-c3ccncc3)[nH]n2)CC1 [N-cyclopropyl-1-[5-(pyridin-4-yl)-1H-pyrazole-3-carbonyl]piperidine-4-carboxamide] | > 1 |
| CCNC(=O)C1CCN(C(=O)c2cc(-c3ccncc3)[nH]n2)CC1 [N-ethyl-1-[5-(pyridin-4-yl)-1H-pyrazole-3-carbonyl]piperidine-4-carboxamide] | > 1 |

The next lines start with the values.

| AC50 [µM] | Structure (SMILES) |
| --- | --- |
| > 1 | O=C(NCc1cccc(Cl)c1)C1CCN(C(=O)c2cc(-c3ccncc3)[nH]n2)CC1 [N-[(3-chlorophenyl)methyl]-1-[5-(pyridin-4-yl)-1H-pyrazole-3-carbonyl]piperidine-4-carboxamide] |
| > 1 | COc1cc(-c2cc(C(=O)N3CC4CC3CC4C(=O)NCc3cccc(Cl)c3)n[nH]2)c(F)cn1 (stereo not drawn) [N-[(3-chlorophenyl)methyl]-2-[5-(5-fluoro-2-methoxypyridin-4-yl)-1H-pyrazole-3-carbonyl]-2-azabicyclo[2.2.1]heptane-5-carboxamide] |
| > 1 | COc1cccc(CNC(=O)C2CCN(C(=O)c3cc(-c4ccncc4)[nH]n3)CC2)c1 [N-[(3-methoxyphenyl)methyl]-1-[5-(pyridin-4-yl)-1H-pyrazole-3-carbonyl]piperidine-4-carboxamide] |
| > 1 | O=C(N[C@@H]1CCN(Cc2ccccc2)C1)C1CCN(C(=O)c2cc(-c3cccnc3)[nH]n2)CC1 [N-[(3R)-1-benzylpyrrolidin-3-yl]-1-[5-(pyridin-3-yl)-1H-pyrazole-3-carbonyl]piperidine-4-carboxamide] |
| > 1 | Cc1cc(CNC(=O)C2CCN(C(=O)c3cc(-c4ccncc4)[nH]n3)CC2)sc1C [N-[(4,5-dimethylthiophen-2-yl)methyl]-1-[5-(pyridin-4-yl)-1H-pyrazole-3-carbonyl]piperidine-4-carboxamide] |
| > 1 | COc1cc(Cl)ccc1CNC(=O)C1CCN(C(=O)c2cc(-c3ccncc3)[nH]n2)CC1 [N-[(4-chloro-2-methoxyphenyl)methyl]-1-[5-(pyridin-4-yl)-1H-pyrazole-3-carbonyl]piperidine-4-carboxamide] |
| > 1 | O=C(NCc1ccc(Cl)cc1)C1CCN(C(=O)c2cc(-c3ccncc3)[nH]n2)CC1 [N-[(4-chlorophenyl)methyl]-1-[5-(pyridin-4-yl)-1H-pyrazole-3-carbonyl]piperidine-4-carboxamide] |
| > 1 | O=C(NCc1nc(C2CC2)cs1)C1CCN(C(=O)c2cc(-c3ccncc3)[nH]n2)CC1 [N-[(4-cyclopropyl-1,3-thiazol-2-yl)methyl]-1-[5-(pyridin-4-yl)-1H-pyrazole-3-carbonyl]piperidine-4-carboxamide] |
| > 1 | Cc1csc(CNC(=O)C2CCN(C(=O)c3cc(-c4ccncc4)[nH]n3)CC2)c1 [N-[(4-methylthiophen-2-yl)methyl]-1-[5-(pyridin-4-yl)-1H-pyrazole-3-carbonyl]piperidine-4-carboxamide] |
| > 1 | Cc1cc(CNC(=O)C2CCN(C(=O)c3cc(-c4ccncc4)[nH]n3)CC2)cnc1C [N-[(5,6-dimethylpyridin-3-yl)methyl]-1-[5-(pyridin-4-yl)-1H-pyrazole-3-carbonyl]piperidine-4-carboxamide] |
| > 1 | COc1ccc(Cl)cc1CNC(=O)C1CCN(C(=O)c2cc(-c3ccncc3)[nH]n2)CC1 [N-[(5-chloro-2-methoxyphenyl)methyl]-1-[5-(pyridin-4-yl)-1H-pyrazole-3-carbonyl]piperidine-4-carboxamide] |
| > 1 | Cc1nc(CNC(=O)C2CCN(C(=O)c3cc(-c4ccncc4)[nH]n3)CC2)no1 [N-[(5-methyl-1,2,4-oxadiazol-3-yl)methyl]-1-[5-(pyridin-4-yl)-1H-pyrazole-3-carbonyl]piperidine-4-carboxamide] |
| > 1 | O=C(NCc1ccccc1)C1CCN(C(=O)c2cc(-c3ccncc3)[nH]n2)CC1 [N-benzyl-1-[5-(pyridin-4-yl)-1H-pyrazole-3-carbonyl]piperidine-4-carboxamide] |
| > 1 | CN(Cc1ccccc1)C(=O)C1CCN(C(=O)c2cc(-c3ccncc3)[nH]n2)CC1 [N-benzyl-N-methyl-1-[5-(pyridin-4-yl)-1H-pyrazole-3-carbonyl]piperidine-4-carboxamide] |
| > 1 | O=C(NC1CCCC1)C1CCN(C(=O)c2cc(-c3ccncc3)[nH]n2)CC1 [N-cyclopentyl-1-[5-(pyridin-4-yl)-1H-pyrazole-3-carbonyl]piperidine-4-carboxamide] |
| > 1 | CNC(=O)CN1CCN(C(=O)C2CCN(C(=O)c3cc(-c4ccncc4)[nH]n3)CC2)CC1 [N-methyl-2-(4-{1-[5-(pyridin-4-yl)-1H-pyrazole-3-carbonyl]piperidine-4-carbonyl}piperazin-1-yl)acetamide] |
